Test results reported in US20250018014A1, “METHOD FOR TREATING AND/OR PREVENTING REGNASE-1-RELATED DISEASE” (OSAKA UNIVERSITY, priority 2018, published 2025).
Where two headings read alike, the source gives them in different places. Residues, ends and D or L forms follow the SMILES beside them.

Tests used:
Format in all cases: biochemical
[1] = target: T1, Reg1_301-599 (amino acids 301-599 of human Regnase-1) phosphorylation by IKKβ (Homo sapiens, UniProt Q5D1E8); test: Regnase-1 phosphorylation inhibition by compounds (AlphaScreen), IKKβ, C-terminal Regnase-1; settings: Table 14, read-out: Phosphorylation inhibition Reg1_301-599, 50% inhibition concentration (IKKβ)
T1 construct: made in house; host or cells: Expi293 cells
T1 sequence (Q5D1E8 301-599): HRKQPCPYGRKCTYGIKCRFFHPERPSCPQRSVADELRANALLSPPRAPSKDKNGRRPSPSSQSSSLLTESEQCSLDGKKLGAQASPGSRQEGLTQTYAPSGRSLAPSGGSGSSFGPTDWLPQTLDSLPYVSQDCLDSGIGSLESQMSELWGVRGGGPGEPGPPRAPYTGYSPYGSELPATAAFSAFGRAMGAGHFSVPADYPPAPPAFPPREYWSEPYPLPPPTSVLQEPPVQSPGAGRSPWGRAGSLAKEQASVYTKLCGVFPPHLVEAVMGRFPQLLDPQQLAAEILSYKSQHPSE
Text: (§1) The full-length sequence of human Regnase-1 (UniProt ID: Q5D1E8) was used to prepare a construct having a FLAG tag on the N-terminal side and a recognition sequence for biotin ligase BirA on the C-terminal side (FL_Reg1) as a target protein. The above-mentioned Regnase-1 was expressed in mammalian Expi293 cells, purified with FLAG M2 agarose, and isolated by gel filtration chromatography. When biotinylation was required, methods from nonpatent documents (BMC biotechnology, 2008,8,41; and Protein Science, 1999,8,921-929) were used.
(§2) Among the full-length human Regnase-1 sequence, the 1st to 546th amino acid sequence was prepared and made into a construct having a FLAG tag on the N-terminal side and a biotin ligase BirA recognition sequence on the C-terminal side (herein, a Regnase-1 lacking the C-terminal domain of Regnase-1 (amino acids 547 to 599 in the case of SEQ ID NO: 2) is referred to as “ΔCTD_Reg1”. “ΔCTD_Reg1” is different from “Regnase-1ΔCTD”, which is a C-terminal domain deletion variant resulting from a frameshift mutation caused by a 1 bp deletion at codon 517, as prepared in Example 13). In addition, the sequence from amino acids 301 to 599 of the full-length human Regnase-1 sequence was designated as C-terminal Regnase-1, and a construct having a FLAG tag on the N-terminal side and a recognition sequence for biotin ligase BirA on the C-terminal side was prepared (Reg1_301-599). The above-mentioned Regnase-1 was expressed in mammalian Expi293 cells, purified with FLAG M2 agarose, and isolated by gel filtration chromatography. When biotinylation was required, methods of nonpatent documents (BMC biotechnology, 2008,8,41; and Protein Science, 1999,8,921-929) were used.
(§3) Using Kinase assay buffer III (manufactured by SignalChem) supplemented with 2 mM DTT, 100 μM sodium vanadate, and 2 mM manganese chloride, kinase (IKKβ (manufactured by SignalChem) or TBK1 (manufactured by SignalChem)) and Regnase-1 were reacted in the presence of 10 μM ATP at room temperature for 2 hours to perform a phosphorylation reaction.
(§4) Phosphorylated Regnase-1 was detected by the AlphaScreen system. After each of the above-mentioned phosphorylated Regnase-1 antibodies was added and reacted at room temperature for one hour, anti-FLAG AlphaLISA Acceptor Beads (manufactured by PerkinElmer) and Protein A AlphaScreen Donor Beads (manufactured by PerkinElmer) were added, and EnVision (manufactured by PerkinElmer) was used to measure the excited luminescence. As a result, phosphorylated Regnase-1 produced by the phosphorylation reaction by kinase was specifically detected, and signals were confirmed to be enhanced in a manner dependent on Regnase-1 and kinase concentrations (FIG. 24).
(§5) After mixing 2 nM of the above-mentioned Regnase-1 and the compound, phosphorylated Regnase-1 produced by the phosphorylation reaction was detected by the AlphaScreen system. As the results, the inhibition rate was calculated from the signals obtained when adding the compound at each concentration, by defining the signal obtained with Regnase-1 alone to be 100% inhibition rate, and the signal obtained when the same amount of solvent (DMSO) is added in place of the compound as 0% inhibition rate. The 50% inhibition concentration (μM) was calculated from the obtained dose response curve (Table 11).

[2] = target: T2, Reg1_301-599 (amino acids 301-599 of human Regnase-1) phosphorylation by TBK1 (Homo sapiens, UniProt Q5D1E8); test: Regnase-1 phosphorylation inhibition by compounds (AlphaScreen), TBK1, C-terminal Regnase-1; settings: Table 13, read-out: Phosphorylation inhibition Reg1_301-599, 50% inhibition concentration (TBK1)
T2 construct: made in house; host or cells: Expi293 cells
T2 sequence (Q5D1E8 301-599): T1 sequence (Q5D1E8 301-599)
Experimental: as §2, §3, §4, §5

[3] = target: T3, ΔCTD_Reg1 (amino acids 1 to 546 of human Regnase-1) phosphorylation by TBK1 (Homo sapiens, UniProt Q5D1E8); test: Regnase-1 phosphorylation inhibition by compounds (AlphaScreen), TBK1, CTD-deficient Regnase-1
T3 construct: made in house; host or cells: Expi293 cells
T3 sequence (Q5D1E8 1-546): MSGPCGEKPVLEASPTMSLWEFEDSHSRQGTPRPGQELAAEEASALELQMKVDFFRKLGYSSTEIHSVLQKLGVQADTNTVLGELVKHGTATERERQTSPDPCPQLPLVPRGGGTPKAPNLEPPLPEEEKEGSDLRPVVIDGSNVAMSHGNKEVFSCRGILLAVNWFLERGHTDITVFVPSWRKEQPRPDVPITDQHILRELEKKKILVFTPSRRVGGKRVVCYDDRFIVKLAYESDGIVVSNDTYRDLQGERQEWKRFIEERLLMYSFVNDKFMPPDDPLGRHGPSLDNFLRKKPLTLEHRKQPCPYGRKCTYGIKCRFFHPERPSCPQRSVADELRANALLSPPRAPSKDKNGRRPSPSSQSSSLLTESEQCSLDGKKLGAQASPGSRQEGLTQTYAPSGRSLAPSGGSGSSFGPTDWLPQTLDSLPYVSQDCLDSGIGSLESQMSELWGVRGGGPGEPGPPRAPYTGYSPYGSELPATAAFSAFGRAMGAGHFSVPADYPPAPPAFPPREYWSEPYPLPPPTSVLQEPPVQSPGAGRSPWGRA
Text: as §1, §2, §3, §4, §5

[4] = Table 11, 2 nM Regnase-1, AlphaScreen, read-out: 50% inhibition concentration, Regnase-1 phosphorylation, ΔCTD_Reg1, TBK1
[5] = Table 13, phosphorylation by TBK1, read-out: Phosphorylation inhibition ΔCTD_Reg1, 50% inhibition concentration (TBK1)

Row | SMILES | IC50 [1] [µM] | IC50 [2] [µM] | IC50 [3, 4] [µM] | IC50 [3, 5] [µM]
1 | CC[C@H](C)[C@@H]1NC(=O)[C@H](Cc2c[nH]c3ccccc23)NC(=O)[C@H](CCC(N)=O)NC(=O)[C@H](Cc2ccc(O)cc2)NC(=O)[C@H](C(C)C)NC(=O)[C@H](C)NC(=O)[C@H](Cc2ccc(O)cc2)NC(=O)[C@H](CCCNC(=N)N)NC(=O)[C@H](C)N(C)C(=O)C[C@@H](C(=O)N2CCCC2)NC(=O)[C@@H]2CCCN2C(=O)[C@H](Cc2ccc(O)cc2)NC1=O [PP12] (HELM PEPTIDE1{[meA].R.Y.A.V.Y.Q.W.I.Y.P.D.[C1CCN([*:1])C1]}$PEPTIDE1,PEPTIDE1,1:R1-12:R3$$$V2.0) | 20.7 | 19.6 |  | 
2 | CC[C@H](C)[C@@H]1NC(=O)[C@H](CCCNC(=N)N)NC(=O)[C@H](Cc2ccc(O)cc2)NC(=O)[C@H](Cc2c[nH]c3ccccc23)NC(=O)[C@H](C)NC(=O)[C@H](CO)NC(=O)[C@H](C)NC(=O)[C@H](Cc2c[nH]cn2)NC(=O)[C@H](CCCCN)NC(=O)[C@@H](C)N(C)C(=O)C[C@@H](C(=O)N2CCCC2)NC(=O)[C@H](Cc2c[nH]c3ccccc23)NC1=O [PP3] (HELM PEPTIDE1{[C[C@H](C(=O)[*:2])N(C)[*:1]].K.H.A.S.A.W.Y.R.I.W.D.[C1CCN([*:1])C1]}$PEPTIDE1,PEPTIDE1,1:R1-12:R3$$$V2.0) | 6.8 | 7.1 | 5.7 | 
3 | CC(C)[C@@H]1NC(=O)[C@H](CCCCN)NC(=O)[C@H](Cc2ccc(O)cc2)NC(=O)[C@H](Cc2c[nH]c3ccccc23)NC(=O)[C@H](CO)NC(=O)[C@H]([C@@H](C)O)NC(=O)[C@H](C)N(C)C(=O)C[C@@H](C(=O)N2CCCC2)NC(=O)[C@H](CCC(N)=O)NC(=O)CNC(=O)[C@H](Cc2c[nH]c3ccccc23)NC(=O)[C@H](CC(N)=O)NC1=O [PP1] (HELM PEPTIDE1{[meA].T.S.W.Y.K.V.N.W.G.Q.D.[C1CCN([*:1])C1]}$PEPTIDE1,PEPTIDE1,1:R1-12:R3$$$V2.0) | > 62.1 | > 62.1 | > 62.1 | > 62.1
4 | CC[C@H](C)[C@@H]1NC(=O)[C@H](CC(=O)O)NC(=O)[C@H](C)N(C)C(=O)C[C@@H](C(=O)N2CCCC2)NC(=O)[C@H](Cc2ccc(O)cc2)NC(=O)[C@H](CC(=O)O)NC(=O)[C@H](Cc2c[nH]c3ccccc23)NC(=O)[C@H](Cc2ccc(O)cc2)NC(=O)[C@H](CC(=O)O)NC(=O)[C@H](Cc2ccccc2)NC(=O)[C@H](Cc2c[nH]c3ccccc23)NC1=O [PP18] (HELM PEPTIDE1{[meA].D.I.W.F.D.Y.W.D.Y.D.[C1CCN([*:1])C1]}$PEPTIDE1,PEPTIDE1,1:R1-11:R3$$$V2.0) | 0.5 |  |  | 1.8
5 | CC[C@H](C)[C@@H]1NC(=O)[C@H](Cc2c[nH]c3ccccc23)NC(=O)[C@@H](Cc2ccccc2)NC(=O)[C@H](CCCCN)NC(=O)[C@H](C)N(C)C(=O)C[C@@H](C(=O)N2CCCC2)NC(=O)[C@H](CCC(=O)O)NC(=O)[C@H](Cc2ccccc2)NC(=O)[C@H](CO)NC(=O)[C@H](Cc2c[nH]cn2)NC(=O)[C@H](Cc2c[nH]cn2)NC1=O [PP20] (HELM PEPTIDE1{[meA].K.[dF].W.I.H.H.S.F.E.D.[C1CCN([*:1])C1]}$PEPTIDE1,PEPTIDE1,1:R1-11:R3$$$V2.0) | > 62.1 | > 62.1 |  | > 62.1
6 | CC[C@H](C)[C@@H]1NC(=O)[C@H](CO)NC(=O)[C@H](CCCNC(=N)N)NC(=O)[C@H](Cc2ccc(O)cc2)NC(=O)[C@H](Cc2ccc(O)cc2)NC(=O)[C@H](Cc2c[nH]c3ccccc23)NC(=O)[C@H](CO)NC(=O)[C@H](CCC(N)=O)NC(=O)[C@H](Cc2ccc(O)cc2)NC(=O)[C@H](CC(N)=O)NC(=O)[C@H](C)N(C)C(=O)C[C@@H](C(=O)N2CCCC2)NC(=O)[C@H](Cc2c[nH]c3ccccc23)NC1=O [PP10] (HELM PEPTIDE1{[meA].N.Y.Q.S.W.Y.Y.R.S.I.W.D.[C1CCN([*:1])C1]}$PEPTIDE1,PEPTIDE1,1:R1-13:R3$$$V2.0) | 1.8 | 0.4 |  | 0.2
7 | CC[C@H](C)[C@@H]1NC(=O)[C@H](Cc2c[nH]c3ccccc23)NC(=O)[C@H](CCCNC(=N)N)NC(=O)[C@H](Cc2ccccc2)NC(=O)[C@H](CCC(N)=O)NC(=O)[C@H](C)NC(=O)[C@H](Cc2ccccc2)NC(=O)[C@H](CCCCN)NC(=O)[C@H](C)N(C)C(=O)C[C@@H](C(=O)N2CCCC2)NC(=O)[C@@H]2CCCN2C(=O)[C@H](Cc2ccc(O)cc2)NC1=O [PP11] (HELM PEPTIDE1{[meA].K.F.A.Q.F.R.W.I.Y.P.D.[C1CCN([*:1])C1]}$PEPTIDE1,PEPTIDE1,1:R1-12:R3$$$V2.0) | > 62.1 | > 62.1 |  | 
